Reference: US7704992B2, “Hepatitis C virus inhibitors” (Bristol-Myers Squibb Company, priority 2008, dated 2010)

test system: HCV 1b-377-neo replicon cells; assay: HCV Replicon assay, HCV 1b genotype; assay type: cell-based; conditions: Hepatitis C virus, class symbol, read-out: EC50 range against HCV 1b
Experimental: An HCV Replicon assay was utilized in the present disclosure, and was prepared, conducted and validated as described in commonly owned PCT/US2006/022197 and in O'Boyle et. al. Antimicrob Agents Chemother. 2005 April; 49(4): 1346-53.
HCV 1b-377-neo replicon cells were used to test the currently described compound series as well as cells resistant to compound A containing a Y2065H mutation in NS5A (described in application PCT/US2006/022197). The compounds tested were determined to have more than 10-fold less inhibitory activity on cells containing the mutation than wild-type cells indicating a related mechanism of action between the two compound series. Thus, the compounds of the present disclosure can be effective to inhibit the function of the HCV NS5A protein and are understood to be as effective in combinations as previously described in application PCT/US2006/022197 and commonly owned WO/04014852. Further, the compounds of the present disclosure can be effective against the HCV 1b genotype. It should also be understood that the compounds of the present disclosure can inhibit multiple genotypes of HCV. […] In one embodiment compounds of the present disclosure are active against the 1a, 1b, 2a, 2b, 3a, 4a, and 5a genotypes.

Compound | EC50 [nM]
COC(=O)N[C@H](C(=O)N1CCC[C@H]1c1ncc(-c2ccc3c(c2)COCc2cc(-c4cnc([C@@H]5CCCN5C(=O)[C@@H](NC(=O)OC)C5CCOCC5)[nH]4)ccc2-3)[nH]1)C1CCOCC1 [Example 10, dimethyl (5,7-dihydrodibenzo[c,e]oxepine-3,9-diylbis(1H-imidazole-4,2-diyl(2S)-2,1-pyrrolidinediyl((1S)-2-oxo-1-(tetrahydro-2H-pyran-4-yl)-2,1-ethanediyl)))biscarbamate] | 0.101 to 0.999
COC(=O)N[C@H](C(=O)N1CCC[C@H]1c1ncc(-c2ccc3c(c2)Cc2cc(-c4cnc([C@@H]5CCCN5C(=O)[C@@H](NC(=O)OC)[C@@H](C)OC)[nH]4)ccc2-3)[nH]1)[C@@H](C)OC [Example 5, methyl ((1S,2R)-2-methoxy-1-(((2S)-2-(5-(7-(2-((2S)-1-(N-(methoxycarbonyl)-O-methyl-L-threonyl)-2-pyrrolidinyl)-1H-imidazol-5-yl)-9H-fluoren-2-yl)-1H-imidazol-2-yl)-1-pyrrolidinyl)carbonyl)propyl)carbamate] | 0.001 to 0.1
COC(=O)N[C@H](C(=O)N1CCC[C@H]1c1ncc(-c2ccc3c(c2)[nH]c2cc(-c4cnc([C@@H]5CCCN5C(=O)[C@@H](NC(=O)OC)C(C)C)[nH]4)ccc23)[nH]1)C(C)C [Example 32] | 0.101 to 0.999
COC(=O)N[C@H](C(=O)N1CCC[C@H]1c1ncc(-c2ccc3c(c2)C(O)c2cc(-c4cnc([C@@H]5CCCN5C(=O)[C@@H](NC(=O)OC)C(C)C)[nH]4)ccc2-3)[nH]1)C(C)C [Example 2, methyl ((1S)-1-(((2S)-2-(5-(9-hydroxy-7-(2-((2S)-1-((2S)-2-((methoxycarbonyl)amino)-3-methylbutanoyl)-2-pyrrolidinyl)-1H-imidazol-5-yl)-9H-fluoren-2-yl)-1H-imidazol-2-yl)-1-pyrrolidinyl)carbonyl)-2-methylpropyl)carbamate] | 0.101 to 0.999
COCC[C@H](NC(=O)OC)C(=O)N1CCC[C@H]1c1ncc(-c2ccc3c4ccc(-c5cnc([C@@H]6CCCN6C(=O)[C@H](CCOC)NC(=O)OC)[nH]5)cc4n(S(=O)(=O)c4ccccc4)c3c2)[nH]1 [Example 28, methyl ((1S)-3-methoxy-1-(((2S)-2-(5-(7-(2-((2S)-1-(N-(methoxycarbonyl)-O-methyl-L-homoseryl)-2-pyrrolidinyl)-1H-imidazol-5-yl)-9-(phenylsulfonyl)-9H-carbazol-2-yl)-1H-imidazol-2-yl)-1-pyrrolidinyl)carbonyl)propyl)carbamate] | 0.001 to 0.1
COC(=O)N[C@H](C(=O)N1CCC[C@H]1c1ncc(-c2ccc3c(c2)C(C)(C)c2cc(-c4cnc([C@@H]5CCCN5C(=O)[C@@H](NC(=O)OC)C(C)C)[nH]4)ccc2-3)[nH]1)C(C)C [Example 14, methyl ((1S)-1-(((2S)-2-(5-(7-(2-((2S)-1-((2S)-2-((methoxycarbonyl)amino)-3-methylbutanoyl)-2-pyrrolidinyl)-1H-imidazol-5-yl)-9,9-dimethyl-9H-fluoren-2-yl)-1H-imidazol-2-yl)-1-pyrrolidinyl)carbonyl)-2-methylpropyl)carbamate] | 0.001 to 0.1
COC(=O)N[C@H](C(=O)N1CCC[C@H]1c1ncc(-c2ccc3c4ccc(-c5cnc([C@@H]6CCCN6C(=O)[C@@H](NC(=O)OC)C(C)C)[nH]5)cc4n(C)c3c2)[nH]1)C(C)C [Example 25, methyl ((1S)-1-(((2S)-2-(5-(7-(2-((2S)-1-((2S)-2-((methoxycarbonyl)amino)-3-methylbutanoyl)-2-pyrrolidinyl)-1H-imidazol-5-yl)-9-methyl-9H-carbazol-2-yl)-1H-imidazol-2-yl)-1-pyrrolidinyl)carbonyl)-2-methylpropyl)carbamate] | 0.001 to 0.1
COC(=O)N[C@H](C(=O)N1CCC[C@H]1c1ncc(-c2ccc3c(c2)oc2cc(-c4cnc([C@@H]5CCCN5C(=O)[C@@H](NC(=O)OC)C(C)C)[nH]4)ccc23)[nH]1)C(C)C [Example 18, methyl ((1S)-1-(((2S)-2-(4-(7-(2-((2S)-1-((2S)-2-((methoxycarbonyl)amino)-3-methylbutanoyl)-2-pyrrolidinyl)-1H-imidazol-4-yl)dibenzo[b,d]furan-3-yl)-1H-imidazol-2-yl)-1-pyrrolidinyl)carbonyl)-2-methylpropyl)carbamate] | 0.001 to 0.1
COC(=O)N[C@H](C(=O)N1CCC[C@H]1c1ncc(-c2ccc3c(c2)oc2cc(-c4cnc([C@@H]5CCCN5C(=O)[C@@H](NC(=O)OC)C(C)(C)C)[nH]4)ccc23)[nH]1)C(C)(C)C [Example 20, methyl ((1S)-1-(((2S)-2-(4-(7-(2-((2S)-1-((2S)-2-((methoxycarbonyl)amino)-3,3-dimethylbutanoyl)-2-pyrrolidinyl)-1H-imidazol-4-yl)dibenzo[b,d]furan-3-yl)-1H-imidazol-2-yl)-1-pyrrolidinyl)carbonyl)-2,2-dimethylpropyl)carbamate] | 0.001 to 0.1
CCN(CC)C(C(=O)N1CCC[C@H]1c1ncc(-c2ccc3c(c2)CN(C)Cc2cc(-c4cnc([C@@H]5CCCN5C(=O)C(c5ccccc5)N(CC)CC)[nH]4)ccc2-3)[nH]1)c1ccccc1 (stereo in doubt) [Example 7, (1S,1′S) -2,2′-((6-methyl-6,7-dihydro-5H-dibenzo[c,e]azepine-3,9-diyl)bis(1H-imidazole-4,2-diyl(2S)-2,1-pyrrolidinediyl)) bis(N,N-diethyl-2-oxo-1-phenylethanamine)] | 0.101 to 0.999

same assay, conditions: Hepatitis C virus, value in nM, read-out: EC50 value against HCV 1b

Compound | EC50 [nM]
COC(=O)N[C@@H](C)C(=O)N1CCC[C@H]1c1ncc(-c2ccc3c(c2)[nH]c2cc(-c4cnc([C@@H]5CCCN5C(=O)[C@H](C)NC(=O)OC)[nH]4)ccc23)[nH]1 [Example 30, methyl ((1S)-2-((2S)-2-(5-(7-(2-((2S)-1-(N-(methoxycarbonyl)-L-alanyl)-2-pyrrolidinyl)-1H-imidazol-5-yl)-9H-carbazol-2-yl)-1H-imidazol-2-yl)-1-pyrrolidinyl)-1-methyl-2-oxoethyl)carbamate] | 20
COC(=O)N[C@H](C(=O)N1CCC[C@H]1c1ncc(-c2ccc3c(c2)CN(C)Cc2cc(-c4cnc([C@@H]5CCCN5C(=O)[C@@H](NC(=O)OC)C(C)C)[nH]4)ccc2-3)[nH]1)C(C)C [Example 6, methyl ((1S)-1-(((2S)-2-(5-(9-(2-((2S)-1-((2S)-2-((methoxycarbonyl)amino)-3-methylbutanoyl)-2-pyrrolidinyl)-1H-imidazol-5-yl)-6-methyl-6,7-dihydro-5H-dibenzo[c,e]azepin-3-yl)-1H-imidazol-2-yl)-1-pyrrolidinyl)carbonyl)-2-methylpropyl) carbamate] | 2

same assay, conditions: Hepatitis C virus, value in pM, read-out: EC50 value against HCV 1b

Compound | EC50 [nM]
COCCn1c2cc(-c3cnc([C@@H]4CCCN4C(=O)[C@@H](NC(=O)OC)[C@@H](C)OC)[nH]3)ccc2c2ccc(-c3cnc([C@@H]4CCCN4C(=O)[C@@H](NC(=O)OC)[C@@H](C)OC)[nH]3)cc21 [Example 35, methyl ((1S,2R)-2-methoxy-1-(((2S)-2-(5-(7-(2-((2S)-1-(N-(methoxycarbonyl)-O-methyl-L-threonyl)-2-pyrrolidinyl)-1H-imidazol-5-yl)-9-(2-methoxyethyl)-9H-carbazol-2-yl)-1H-imidazol-2-yl)-1-pyrrolidinyl)carbonyl)propyl)carbamate] | 0.662
